Measured values from patent publication US20210267203A1, “PESTICIDALLY ACTIVE AZOLE-AMIDE COMPOUNDS” (SYNGENTA PARTICIPATIONS AG, priority 2018, published 2021).

What was measured:
Assay type in all cases: in vivo
[1] = test system: Diabrotica Balteata (Corn Root Worm); assay: Example B1: Diabrotica balteata (corn root worm), maize sprouts sprayed, L2 larvae; conditions: 96 h, application rate 200 ppm, 4 days after infestation, read-out: effect in at least one of the two categories (mortality or growth inhibition)
How it was run: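 Maize sprouts on agar sprayed with aqueous dilutions of 10,000 ppm DMSO stocks, dried, then infested with 6–10 L2 larvae per well. Mortality and growth inhibition scored against untreated samples 4 days after infestation; rates of 200 ppm.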

[2] = test system: Euschistus heros (Neotropical Brown Stink Bug); assay: Example B2: Euschistus heros (neotropical brown stink bug), soybean leaves sprayed, N2 nymphs; conditions: 120 h, application rate 200 ppm, 5 days after infestation, read-out: effect in at least one of the two categories (mortality or growth inhibition)
How it was run: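 Soybean leaves on agar sprayed with aqueous test solutions made from 10,000 ppm DMSO stocks, dried, then infested with N2 nymphs. Mortality and growth inhibition scored versus untreated samples 5 days after infestation; activity threshold at 200 ppm.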

[3] = test system: Frankliniella occidentalis (Western Flower Thrips); assay: Example B3: Frankliniella occidentalis (western flower thrips), feeding/contact activity; conditions: 168 h, application rate 200 ppm, mixed ages, 7 days after infestation
Method: Example B3: Frankliniella occidentalis (Western Flower Thrips):Feeding/Contact Activity
Sunflower leaf discs were placed on agar in 24-well microtiter plates and sprayed with aqueous test solutions prepared from 10,000 DMSO stock solutions. After drying the leaf discs were infested with a Frankliniella population of mixed ages. The samples were assessed for mortality 7 days after infestation.

[4] = test system: Chilo suppressalis (Striped Rice Stemborer); assay: Example B4: Chilo suppressalis (striped rice stemborer), artificial diet, L2 larvae; conditions: 144 h, application rate 200 ppm, 6 days after infestation
How it was run: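 L2 larvae (6-8 per well) placed on artificial diet treated with aqueous test solutions prepared from 10,000 ppm DMSO stocks, after drying. Mortality, anti-feeding and growth inhibition scored against untreated samples 6 days after infestation; control means at least one category exceeds untreated.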

[5] = test system: Plutella xylostella (Diamond Back Moth); assay: Example B5: Plutella xylostella (diamond back moth), artificial diet, 24-well, eggs; conditions: 192 h, application rate 200 ppm, 8 days after infestation, read-out: effect in at least one of the two categories (mortality or growth inhibition)
How it was run: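 Artificial diet in 24-well plates treated with aqueous dilutions of 10,000 ppm DMSO stocks, dried, then infested with Plutella eggs. Mortality and growth inhibition scored against untreated samples 8 days after infestation; activity rated at 200 ppm application rate.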

[6] = test system: Myzus persicae (Green Peach Aphid); assay: Example B6: Myzus persicae (green peach aphid), feeding/contact activity; conditions: 144 h, application rate 200 ppm, 6 days after infestation
Method: Example B6: Myzus persicae (Green Peach Aphid):Feeding/Contact Activity
Sunflower leaf discs were placed onto agar in a 24-well microtiter plate and sprayed with aqueous test solutions prepared from 10,000 ppm DMSO stock solutions. After drying, the leaf discs were infested with an aphid population of mixed ages. The samples were assessed for mortality 6 days after infestation.

[7] = test system: Myzus persicae (Green Peach Aphid); assay: Example B8: Myzus persicae (green peach aphid), intrinsic activity; conditions: 120 h, test rate 12 ppm, sucrose solution, 24-well, 5 days after infestation
How it was run: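 Compounds diluted from 10,000 ppm DMSO stock were mixed with sucrose solution under stretched Parafilm in a sachet feeding setup, with aphid-infested pea seedlings placed on the membrane. Mortality was scored 5 days after infestation.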

[8] = test system: Spodoptera littoralis (Egyptian Cotton Leaf Worm); assay: Example B9: Spodoptera littoralis (Egyptian cotton leaf worm), cotton leaf discs sprayed, L1 larvae; conditions: foliar, 72 h, application rate 200 ppm, 3 days after infestation
How it was run: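 Leaf discs on agar sprayed with aqueous dilutions from 10,000 ppm DMSO stock, dried, then infested with five L1 larvae. Mortality, anti-feeding and growth inhibition scored against untreated samples 3 days after infestation; control counted when any category exceeds untreated.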

[9] = test system: Spodoptera littoralis (Egyptian Cotton Leaf Worm); assay: Example B10: Spodoptera littoralis (Egyptian cotton leaf worm), uptake by lettuce roots from agar, eggs; conditions: 144 h, test rate 12.5 ppm, lettuce root uptake, 6 days after infestation, read-out: effect in at least one of the three categories (mortality, anti-feeding, or growth inhibition)
How it was run: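 Compound mixed into agar from a 10,000 ppm DMSO stock; lettuce grown on it for 7 days for root uptake. Cut leaves infested with Spodoptera eggs; mortality, anti-feedant effect and growth inhibition scored against untreated samples 6 days after infestation.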

[10] = test system: Myzus persicae (Green Peach Aphid); assay: Example B13: activity against Myzus persicae (green peach aphid), 96-well sucrose solution; conditions: 120 h, application rate 50 ppm, 5 days after infestation
How it was run: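 Compounds, from 10,000 ppm DMSO stocks, mixed into sucrose solution in wells under stretched Parafilm, with aphids placed on the membrane in an inverted feeding setup. Mortality scored 5 days after infestation.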

[11] = test system: Tetranychus urticae (Two-Spotted Spider Mite); assay: Example B11: Tetranychus urticae (two-spotted spider mite), feeding/contact activity; conditions: 192 h, application rate 200 ppm, mixed population (mobile stages), 8 days after infestation
Method: Example B11: Tetranychus urticae (Two-Spotted Spider Mite):Feeding/Contact Activity
Bean leaf discs on agar in 24-well microtiter plates were sprayed with aqueous test solutions prepared from 10,000 ppm DMSO stock solutions. After drying the leaf discs were infested with a mite population of mixed ages. The samples were assessed for mortality on mixed population (mobile stages) 8 days after infestation.

[12] = test system: Myzus persicae (Green Peach Aphid); assay: Example B7: Myzus persicae (green peach aphid), systemic activity; conditions: 144 h, test rate 24 ppm, pea seedling roots in test solution, 6 days
Method: Example B7: Myzus persicae (Green Peach Aphid), Systemic Activity
Roots of pea seedlings infested with an aphid population of mixed ages were placed directly into aqueous test solutions prepared from 10,000 DMSO stock solutions. The samples were assessed for mortality 6 days after placing seedlings into test solutions.

[13] = test system: Plutella xylostella (Diamondback Moth); assay: Example B14: activity against Plutella xylostella (diamondback moth), 96-well artificial diet; conditions: 216 h, application rate 500 ppm, 9 days after infestation
How it was run: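 Diet in 96-well plates was treated with aqueous dilutions of 10,000 ppm DMSO stocks, dried, and infested with 30 eggs per well via a netted lid; hatching L1 larvae fed on the diet. Mortality scored 9 days after infestation.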

CC(NC(=O)c1cc(C(F)(F)F)cc(C2(C#N)CC2)c1)c1ncnn1-c1ncccn1 (stereo not drawn) [P85, 3-(1-cyanocyclopropyl)-N-[1-(2-pyrimidin-2-yl-1,2,4-triazol-3-yl)ethyl]-5-(trifluoromethyl)benzamide]
≥ 80%: percent effect (mortality or growth inhibition) at 200 ppm [1] | percent effect (mortality or growth inhibition) at 200 ppm [2] | mortality at 200 ppm [3] | percent control (mortality, anti-feedant effect or growth inhibition) at 200 ppm [4] | percent effect (mortality or growth inhibition) at 200 ppm [5] | mortality at 200 ppm [6] | mortality at 12 ppm [7] | percent control (mortality, anti-feedant effect or growth inhibition) at 200 ppm [8] | percent effect (mortality, anti-feeding or growth inhibition) at 12.5 ppm [9] | mortality at 50 ppm [10]

CC(NC(=O)c1cc(C(F)(F)F)cc(C(C)(C)C#N)c1)c1ncnn1-c1ncc(Br)cn1 (stereo not drawn) [P79, N-[1-[2-(5-bromopyrimidin-2-yl)-1,2,4-triazol-3-yl]ethyl]-3-(1-cyano-1-methyl-ethyl)-5-(trifluoromethyl)benzamide]
≥ 80%: percent effect (mortality or growth inhibition) at 200 ppm [1] | percent effect (mortality or growth inhibition) at 200 ppm [2] | percent control (mortality, anti-feedant effect or growth inhibition) at 200 ppm [4] | percent effect (mortality or growth inhibition) at 200 ppm [5] | percent control (mortality, anti-feedant effect or growth inhibition) at 200 ppm [8] | mortality at 200 ppm [11]

CC(NC(=O)c1cc(-c2cccnc2Cl)cc(C(F)(F)F)c1)c1ncnn1-c1ncccn1 (stereo not drawn) [P62, 3-(2-chloro-3-pyridyl)-N-[1-(2-pyrimidin-2-yl-1,2,4-triazol-3-yl)ethyl]-5-(trifluoromethyl)benzamide]
≥ 80%: mortality at 200 ppm [11]

CC(c1ncnn1-c1ncccn1)N(CC1CC1)C(=O)c1cc(C(F)(F)F)cc(C2(C(F)(F)F)CC2)c1 (stereo not drawn) [P45, N-(cyclopropylmethyl)-N-[1-(2-pyrimidin-2-yl-1,2,4-triazol-3-yl)ethyl]-3-(trifluoromethyl)-5-[1-(trifluoromethyl)cyclopropyl]benzamide]
≥ 80%: percent effect (mortality or growth inhibition) at 200 ppm [1] | percent effect (mortality or growth inhibition) at 200 ppm [2] | mortality at 200 ppm [3] | percent effect (mortality or growth inhibition) at 200 ppm [5] | mortality at 24 ppm [12] | mortality at 12 ppm [7] | percent control (mortality, anti-feedant effect or growth inhibition) at 200 ppm [8] | percent effect (mortality, anti-feeding or growth inhibition) at 12.5 ppm [9] | mortality at 50 ppm [10] | mortality at 500 ppm [13]

CC(NC(=O)c1cc(C(F)(F)F)cc(S(C)(=O)=O)c1)c1ncnn1-c1ncccn1 (stereo not drawn) [P64, 3-methylsulfonyl-N-[1-(2-pyrimidin-2-yl-1,2,4-triazol-3-yl)ethyl]-5-(trifluoromethyl)benzamide]
≥ 80%: percent effect (mortality or growth inhibition) at 200 ppm [1] | percent effect (mortality or growth inhibition) at 200 ppm [2] | mortality at 200 ppm [3] | percent control (mortality, anti-feedant effect or growth inhibition) at 200 ppm [4] | percent effect (mortality or growth inhibition) at 200 ppm [5] | mortality at 200 ppm [6] | mortality at 24 ppm [12] | mortality at 12 ppm [7] | percent control (mortality, anti-feedant effect or growth inhibition) at 200 ppm [8] | mortality at 50 ppm [10]

CC(c1ncnn1-c1ncccn1)N(CC1CC1)C(=O)c1cc(C(C)(C)C#N)cc(Cl)n1 (stereo not drawn) [P27, 6-chloro-4-(1-cyano-1-methyl-ethyl)-N-(cyclopropylmethyl)-N-[1-(2-pyrimidin-2-yl-1,2,4-triazol-3-yl)ethyl]pyridine-2-carboxamide]
≥ 80%: percent effect (mortality or growth inhibition) at 200 ppm [2] | percent effect (mortality or growth inhibition) at 200 ppm [5] | mortality at 200 ppm [11] | mortality at 50 ppm [10] | mortality at 500 ppm [13]
